Results taken from paper PMC8998611, “Identification of Novel GSK-3β Hits Using Competitive Biophysical Assays” (International Journal of Molecular Sciences, 2022).

Assays:
GSK-3β [1] = biological target: T1, GSK-3β (Homo sapiens, UniProt P49841); assay: LANCE Ultra TR-FRET GSK-3β kinase inhibition assay (ULight-GS phosphorylation); assay type: biochemical; settings: 1 µM ATP, 50 nM ULight-GS; for inhibition at 1 µM: 1 μM compound; for inhibition at 1 µM / inhibition at 5 µM / inhibition at 50 µM / inhibition at 100 µM: mean ± SD; for inhibition at 5 µM: 5 μM compound; for inhibition at 50 µM: 50 μM compound; for inhibition at 100 µM: 100 μM compound; for IC50: dose-response 30 nM to 200 μM
T1 sequence (P49841 whole entry): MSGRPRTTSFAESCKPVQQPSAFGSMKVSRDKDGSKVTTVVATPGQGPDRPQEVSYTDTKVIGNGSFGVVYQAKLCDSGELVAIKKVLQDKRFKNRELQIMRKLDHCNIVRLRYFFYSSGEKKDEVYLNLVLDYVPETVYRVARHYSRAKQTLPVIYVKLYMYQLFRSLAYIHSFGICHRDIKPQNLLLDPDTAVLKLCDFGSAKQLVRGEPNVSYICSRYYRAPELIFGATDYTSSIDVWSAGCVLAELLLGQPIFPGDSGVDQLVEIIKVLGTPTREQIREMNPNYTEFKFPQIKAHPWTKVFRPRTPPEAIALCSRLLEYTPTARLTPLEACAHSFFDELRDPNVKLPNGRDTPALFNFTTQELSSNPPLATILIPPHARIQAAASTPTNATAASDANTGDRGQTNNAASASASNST
Description: To assess if the identified GSK-3β binders were also able to affect kinase activity, the inhibitory activity of the four identified hit compounds was tested at four concentrations (1-5-50-100 μM) using the LANCE® Ultra (Perkin Elmer, Waltham, MA, USA) time-resolved fluorescence resonance energy transfer (TR-FRET) assay. The assay measures the ability of GSK-3β to phosphorylate a specific substrate, human Muscle Glycogen Synthase (ULight-GS ([…]/pSer657)), in the presence and absence of the identified ligands. […] Specifically, IC50 values were (14.81 ± 0.55) μM and (15.25 ± 1.34) μ[…] and G12, respectively (Figure 5). The GSK-3β kinase assay was run in 384 well microplates (OptiPlate^TM-384, White, Perkin Elmer) with a total reaction volume of 20 μL. The inhibitory potency against human recombinant GSK-3β was evaluated using the LANCE® Ultra (Perkin Elmer) time-resolved fluorescence resonance energy transfer (TR-FRET) by measuring the phosphorylation of the specific substrate, human Muscle Glycogen Synthase (ULight-GS ([…]/pSer657)), according to the manufacturer's instructions. […] The reaction was initiated by adding 50 nM of the substrate ULight-[…] and 1 μM ATP. The mixture was incubated for 1 h at 23 °C. Afterward, the reaction was stopped by adding 8 mM EDTA. After 5 min, the anti-phospho-GS antibody labeled with europium chelate was added. 1 h later, the kinase reaction was monitored by irradiation at 320 nm, and the fluorescence was measured at 615 and 665 nm, using EnVision 2014 Multilabel Reader (PerkinElmer). The calculated signal ratio at 665/615 nm was proportional to the extent of ULight-GS phosphorylation. The compounds were screened at four concentrations (1-5-50-100 μM). For selected compounds, dose-response curves, ranging from 30 nM up to 200 μM, were performed. Dose-response curves were run in three independent experiments, each performed in three technical replicates. IC50 values (concentrations causing half-maximal response or enzyme inhibition) were determined by non-linear regression analysis of the Log [concentration]/response curves generated with mean replicate values using a four parameter Hill equation curve fitting with GraphPad Prism 8 (GraphPad Software Inc., San Diego, CA, USA).

SAPK2a = biological target: T2, SAPK2a (Homo sapiens, UniProt Q16539); assay: Eurofins Kinase Diversity Panel, SAPK2a; assay type: biochemical; settings: 20 µM compound, ATP at Km ± 15 µM
T2 construct: purchased Eurofins (Kinase Diversity Panel service)
T2 sequence (Q16539 whole entry): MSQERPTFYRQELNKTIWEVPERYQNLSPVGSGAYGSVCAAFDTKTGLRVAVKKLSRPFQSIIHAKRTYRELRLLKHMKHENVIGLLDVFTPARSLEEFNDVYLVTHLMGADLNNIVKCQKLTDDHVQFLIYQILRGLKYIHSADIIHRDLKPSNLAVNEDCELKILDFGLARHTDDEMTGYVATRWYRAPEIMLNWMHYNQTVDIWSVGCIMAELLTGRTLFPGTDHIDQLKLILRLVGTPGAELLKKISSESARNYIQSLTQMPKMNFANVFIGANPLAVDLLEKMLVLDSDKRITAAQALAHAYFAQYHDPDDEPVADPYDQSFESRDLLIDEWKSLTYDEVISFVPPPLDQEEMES
Description: (§1) To further characterize the inhibitory activity of the two selected fragments, the selectivity of G5 and G12 towards a panel of 58 kinases of the humane proteome was evaluated using the “Kinase screening and profiling” service of Eurofins, Luxembourg (Kinase Diversity Panel). […] Results are reported in Supplementary Figures S2 and S3.

CDKs = assay: Eurofins Kinase Diversity Panel, CDKs; assay type: biochemical, human; settings: 20 µM compound; ATP at Km ± 15 µM
Description: as §1

GSK-3β [2] = biological target: T1, GSK-3β; assay: 19F T2 filter NMR ligand-based binding experiments; design: made in house; host or cells: Sf9 cells; settings: in presence of GSK-3β and 1 mM or 3 mM AMP-PNP
Description: GSK-3β was pre-incubated at room temperature for 10 min in the presence of 1 mM AMP-PNP before addition to the mixtures. […] On the contrary, NMR signals of the non-binding molecules were not affected by the presence of the target protein. Molecules selected from this first NMR screening were then tested as a single compound under the same screening conditions in the presence of two non-binding compounds as negative controls. The promising compounds, still showing binding to GSK-3β when tested as singles, were retested also in the presence of 3 mM AMP-PNP (among these, G5 and G12, whose NMR spectra are reported in Figure 2a,b, respectively). […] These hits were then further analyzed and characterized through different biophysical approaches.
All NMR screening experiments were recorded at 298 K with a Bruker FT NMR Avance III 600 MHz spectrometer, equipped with a 5 mm CryoProbe™ QCI ^1H/^19F–^13C/^15N–D with an automatic sample changer SampleJet™ with temperature control. All GSK-3β experiments were performed at low enzyme concentration (750 nM/1 μM) in 60 mM Hepes pH 7.5, 25 mM NaCl, 10 mM MgCl2, 2 mM TCEP, 8% D2O (for lock signal), 0.003% Triton X-100 (for the coating of NMR tube wall). […]

TAK1 = biological target: T3, TAK1 (Homo sapiens, UniProt O43318); assay: Eurofins Kinase Diversity Panel, TAK1; assay type: biochemical; settings: 20 µM compound; ATP at Km ± 15 µM; read-out: inhibitory effect on TAK1
T3 construct: purchased Eurofins (Kinase Diversity Panel service)
T3 sequence (O43318 1-303 limits assumed): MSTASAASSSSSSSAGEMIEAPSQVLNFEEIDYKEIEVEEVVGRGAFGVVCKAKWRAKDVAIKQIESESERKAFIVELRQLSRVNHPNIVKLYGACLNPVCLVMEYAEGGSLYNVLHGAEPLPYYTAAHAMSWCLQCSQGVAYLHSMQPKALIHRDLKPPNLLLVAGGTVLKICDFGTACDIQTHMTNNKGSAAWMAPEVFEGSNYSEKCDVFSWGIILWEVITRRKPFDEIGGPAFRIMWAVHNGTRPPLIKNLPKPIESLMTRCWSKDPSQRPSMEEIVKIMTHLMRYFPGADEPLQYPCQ
Description: as §1

MLK1 = biological target: T4, MLK1 (Homo sapiens, UniProt P80192); assay: Eurofins Kinase Diversity Panel, MLK1; assay type: biochemical; settings: 20 µM compound; ATP at Km ± 15 µM
T4 construct: purchased Eurofins (Kinase Diversity Panel service)
T4 sequence (P80192 whole entry): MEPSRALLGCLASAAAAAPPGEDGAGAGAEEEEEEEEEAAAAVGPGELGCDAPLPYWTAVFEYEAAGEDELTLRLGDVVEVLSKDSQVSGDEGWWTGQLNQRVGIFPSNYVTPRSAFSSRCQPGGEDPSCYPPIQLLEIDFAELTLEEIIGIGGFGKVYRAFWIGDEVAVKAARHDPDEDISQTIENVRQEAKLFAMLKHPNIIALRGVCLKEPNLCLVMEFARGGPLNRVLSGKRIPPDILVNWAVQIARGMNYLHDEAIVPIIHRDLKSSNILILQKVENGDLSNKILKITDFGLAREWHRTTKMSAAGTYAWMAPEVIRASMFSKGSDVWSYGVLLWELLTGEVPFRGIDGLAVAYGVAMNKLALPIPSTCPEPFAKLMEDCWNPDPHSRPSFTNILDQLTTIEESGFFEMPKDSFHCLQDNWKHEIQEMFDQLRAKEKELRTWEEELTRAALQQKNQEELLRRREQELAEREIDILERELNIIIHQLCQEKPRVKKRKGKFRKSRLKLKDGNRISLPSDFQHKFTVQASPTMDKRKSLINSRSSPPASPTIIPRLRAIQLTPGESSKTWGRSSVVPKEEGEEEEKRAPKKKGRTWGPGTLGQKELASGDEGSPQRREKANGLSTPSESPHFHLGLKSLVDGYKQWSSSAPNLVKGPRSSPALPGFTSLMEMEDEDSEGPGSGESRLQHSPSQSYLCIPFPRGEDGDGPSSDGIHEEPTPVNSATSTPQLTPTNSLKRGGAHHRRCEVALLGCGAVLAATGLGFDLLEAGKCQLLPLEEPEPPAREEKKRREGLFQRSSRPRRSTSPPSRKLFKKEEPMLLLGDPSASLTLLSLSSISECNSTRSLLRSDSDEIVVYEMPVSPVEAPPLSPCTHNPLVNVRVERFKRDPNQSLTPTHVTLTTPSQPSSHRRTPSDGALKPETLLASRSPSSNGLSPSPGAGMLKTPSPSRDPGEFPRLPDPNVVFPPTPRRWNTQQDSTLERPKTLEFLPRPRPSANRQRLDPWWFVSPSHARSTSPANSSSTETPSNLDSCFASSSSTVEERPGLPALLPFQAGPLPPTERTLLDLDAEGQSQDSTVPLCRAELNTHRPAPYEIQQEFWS
Description: as §1

| inhibition at 1 µM (GSK-3β [1]) | inhibition at 5 µM (GSK-3β [1]) | inhibition at 50 µM (GSK-3β [1]) | inhibition at 100 µM (GSK-3β [1]) | IC50 (GSK-3β [1]) | inhibition at 20 µM (SAPK2a; read-out: inhibitory effect on SAPK2a) | binding by 19F T2 filter NMR (line broadening of signal) (GSK-3β [2]) | inhibitory effect on SAPK2a (SAPK2a) | inhibition at 20 µM (TAK1) | inhibitory effect on MLK1 (MLK1) | SMILES | inhibitory activity on CDKs (CDKs) |
| --- | --- | --- | --- | --- | --- | --- | --- | --- | --- | --- | --- |
| 0.3 ± 0.1% | 13.4 ± 2% | 69.4 ± 2% | > 80% | 14.8 ± 0.55 µM | 19% | strong line broadening | – | – | – | CS(=O)(=O)N1CC(c2nc(N)ncc2-c2ccc(F)cc2)C1 [G5] | did not show any evident inhibitory activity |
| 8.5 ± 0.1% | 15.2 ± 2.7% | 71.4 ± 1.7% | > 80% | 15.2 ± 1.34 µM | – | strong line broadening | no inhibitory effect | 20% | no inhibition | O=C(Nc1ccccn1)C1CCN(C(=O)CCc2ccccc2F)C1 (centres unmarked) [G12] | – |
